Measurements reported in paper PMC6173055, “Structure and function of a glycoside hydrolase family 8 endoxylanase from Teredinibacter turnerae” (Acta Crystallographica. Section D, Structural Biology, 2018).

Target: T1, TtGH8 (Teredinibacter turnerae, UniProt C5BJ89)
T1 construct: gene TERTU_4506; catalytic domain, residues 41-436; signal peptide and linker removed; N-terminal His6 tag cut off with 3C protease; codon-optimised, expressed in E. coli BL21
Test: thermal shift (SYPRO Orange)
Format: binding
Settings: 10 mM ligand

T1 sequence (C5BJ89 entry or part of it): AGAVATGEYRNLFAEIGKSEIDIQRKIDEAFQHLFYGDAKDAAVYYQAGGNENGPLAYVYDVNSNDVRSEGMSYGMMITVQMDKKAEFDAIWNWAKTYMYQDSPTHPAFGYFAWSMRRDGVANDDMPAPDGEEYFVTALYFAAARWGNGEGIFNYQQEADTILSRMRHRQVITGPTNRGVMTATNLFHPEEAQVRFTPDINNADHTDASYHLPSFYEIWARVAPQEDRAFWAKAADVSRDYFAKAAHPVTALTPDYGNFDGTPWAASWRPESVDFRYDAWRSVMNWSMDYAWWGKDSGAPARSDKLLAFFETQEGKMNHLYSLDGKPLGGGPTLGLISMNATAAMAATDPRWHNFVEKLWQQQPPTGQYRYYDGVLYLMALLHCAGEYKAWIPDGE

increase in melting temperature: 2.9 °C
SMILES: OC1OC[C@@H](O[C@@H]2OC[C@@H](O[C@@H]3OC[C@@H](O[C@@H]4OC[C@@H](O[C@@H]5OC[C@@H](O[C@@H]6OC[C@@H](O)[C@H](O)[C@H]6O)[C@H](O)[C@H]5O)[C@H](O)[C@H]4O)[C@H](O)[C@H]3O)[C@H](O)[C@H]2O)[C@H](O)[C@H]1O (stereo partly shown) [X6, xylohexaose]
